# Paper PMC10746543, “Design principles for cyclin K molecular glue degraders” (Nature Chemical Biology, 2023)
# Several values for one entry are separate records, joined by “and”; a condition that tells them apart may be missing. Equal entries are not always repeated. Where two headings read alike, the source gives them in different places.
# What was measured:
# [1] = test system: cyclin K; assay: Label-free quantitative mass spectrometry in MDA-MB-231 cells, cyclin K; assay type: cell-based, human
# Procedure: (§1) MDA-MB-231 cells were treated with DMSO or a cyclin K degrader compound at 1 µM for 5 h. Cells were collected by centrifugation and washed with phosphate-buffered saline before snap freezing in liquid nitrogen. Cells were lysed by addition of lysis buffer (8 M urea, 50 mM NaCl, 50 mM 4-(2-hydroxyethyl)-1-piperazineethanesulfonic acid (EPPS) pH 8.5, and protease and phosphatase inhibitors) and homogenization by bead beating (BioSpec) for three repeats of 30 s at 2,400 rpm. Bradford assay was used to determine the final protein concentration in the clarified cell lysate. Then 50 µg of protein for each sample was reduced, alkylated and precipitated using methanol/chloroform as previously described, and the resulting washed precipitated protein was allowed to air dry. Precipitated protein was resuspended in 4 M urea, 50 mM HEPES pH 7.4, followed by dilution to 1 M urea with the addition of 200 mM EPPS, pH 8. Proteins were first digested with LysC (1:50; enzyme:protein) for 12 h at room temperature. The LysC digestion was diluted to 0.5 M urea with 200 mM EPPS pH 8 followed by digestion with trypsin (1:50; enzyme:protein) for 6 h at 37 °C. Sample digests were acidified with formic acid to a pH of 2–3 before desalting using C18 solid phase extraction plates (SOLA, Thermo Fisher Scientific). Desalted peptides were dried in a vacuum-centrifuged and reconstituted in 0.1% formic acid for liquid chromatography–mass spectrometry analysis.
# (§2) Data were collected using a TimsTOF Pro2 (Bruker Daltonics) coupled to a nanoElute LC pump (Bruker Daltonics) via a CaptiveSpray nano-electrospray source. Peptides were separated on a reversed-phase C18 column (25 cm × 75 µm inner diameter, […], IonOpticks) containing an integrated captive spray emitter. Peptides were separated using a 50 min gradient of 2–30% buffer B (acetonitrile in 0.1% formic acid) with a flow rate of 250 nl min^−1 and column temperature maintained at 50 °C.
# (§3) Data-dependent acquisition (DDA) was performed in Parallel Accumulation-Serial Fragmentation (PASEF) mode to determine effective ion mobility windows for downstream diaPASEF data collection. The ddaPASEF parameters included: 100% duty cycle using accumulation and ramp times of 50 ms each, one Trapped Ion Mobility Spectrometry(TIMS)-MS scan and ten PASEF ramps per acquisition cycle. The TIMS-MS survey scan was acquired between 100 m/z and 1,700 m/z and 1/K0 of 0.7–1.3 V s cm^−2. Precursors with one to five charges were selected, and those that reached an intensity threshold of 20,000 arbitrary units were actively excluded for 0.4 min. The quadrupole isolation width was set to 2 m/z for m/z < 700 and 3 m/z for m/z > 800, with the m/z between 700 m/z and 800 m/z being interpolated linearly. […] To perform diaPASEF, the precursor distribution in the DDA m/z-ion mobility plane was used to design an acquisition scheme for data-independent acquisition (DIA) data collection that included two windows in each 50 ms diaPASEF scan. Data were acquired using 16 of these 25 Da precursor double window scans (creating 32 windows) that covered the diagonal scan line for doubly and triply charged precursors, with singly charged precursors able to be excluded by their position in the m/z-ion mobility plane. These precursor isolation windows were defined between 400 m/z and 1,200 m/z and 1/K0 of 0.7–1.3 V s cm^−2.
# (§4) DirectDIA mode includes first extracting the DIA data into a collection of MS2 spectra which are searched using Spectronaut’s Pulsar search engine. The search results are then used to generate a spectral library which is then employed for the targeted analysis of the DIA data. MS/MS spectra were searched against a Swissprot human database (January 2021). Database search criteria largely followed the default settings for directDIA including: tryptic with two missed cleavages, fixed carbomidomethylation of cysteine, and variable oxidation of methionine and acetylation of protein N-termini and precursor Q-value (FDR) cut-off of 0.01. […]
# [2] = test system: HEK293T cells; assay: Drug sensitivity assay (CellTiter-Glo viability) with or without MLN4924 pretreatment; assay type: cell-based, human; details: Supplementary Table 2
# Method in brief: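 First, cells (HEK293T–Cas9, 0.15 × 10^6 ml^−1) are exposed to DMSO or 100 nM MLN4924. Next, drugs follow at 2 h. Finally, CellTiter-Glo is read at day 3 and normalised to DMSO.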
# [3] = biological target: T1, CDK12 (Homo sapiens, UniProt Q16531+Q9NYV4); assay: Label-free quantitative mass spectrometry in MDA-MB-231 cells, CDK12; assay type: cell-based
# T1 construct: endogenous in cells; host or cells: MDA-MB-231
# Procedure: as §1, §2, §3, §4
# [4] = biological target: CDK12–cyclin K (Homo sapiens, UniProt Q9NYV4); assay: Lanthascreen kinase binding assay, CDK12; details: for Lanthascreen raw signal, sheet CDK12: duplicates
# Procedure: Lanthascreen experiments were performed using commercially available reagents (Thermo Fisher) and according to the manufacturer’s instructions.
# [5] = biological target: T2, CDK13 (Homo sapiens, UniProt Q14004+Q16531); assay: Label-free quantitative mass spectrometry in MDA-MB-231 cells, CDK13; assay type: cell-based
# T2 construct: endogenous in cells; host or cells: MDA-MB-231
# Procedure: as §1, §2, §3, §4
# [6] = label-free quantitative MS, replicate values
# [7] = normalised to DMSO = 1, replicate values
# T2 sequence (Q14004 whole entry): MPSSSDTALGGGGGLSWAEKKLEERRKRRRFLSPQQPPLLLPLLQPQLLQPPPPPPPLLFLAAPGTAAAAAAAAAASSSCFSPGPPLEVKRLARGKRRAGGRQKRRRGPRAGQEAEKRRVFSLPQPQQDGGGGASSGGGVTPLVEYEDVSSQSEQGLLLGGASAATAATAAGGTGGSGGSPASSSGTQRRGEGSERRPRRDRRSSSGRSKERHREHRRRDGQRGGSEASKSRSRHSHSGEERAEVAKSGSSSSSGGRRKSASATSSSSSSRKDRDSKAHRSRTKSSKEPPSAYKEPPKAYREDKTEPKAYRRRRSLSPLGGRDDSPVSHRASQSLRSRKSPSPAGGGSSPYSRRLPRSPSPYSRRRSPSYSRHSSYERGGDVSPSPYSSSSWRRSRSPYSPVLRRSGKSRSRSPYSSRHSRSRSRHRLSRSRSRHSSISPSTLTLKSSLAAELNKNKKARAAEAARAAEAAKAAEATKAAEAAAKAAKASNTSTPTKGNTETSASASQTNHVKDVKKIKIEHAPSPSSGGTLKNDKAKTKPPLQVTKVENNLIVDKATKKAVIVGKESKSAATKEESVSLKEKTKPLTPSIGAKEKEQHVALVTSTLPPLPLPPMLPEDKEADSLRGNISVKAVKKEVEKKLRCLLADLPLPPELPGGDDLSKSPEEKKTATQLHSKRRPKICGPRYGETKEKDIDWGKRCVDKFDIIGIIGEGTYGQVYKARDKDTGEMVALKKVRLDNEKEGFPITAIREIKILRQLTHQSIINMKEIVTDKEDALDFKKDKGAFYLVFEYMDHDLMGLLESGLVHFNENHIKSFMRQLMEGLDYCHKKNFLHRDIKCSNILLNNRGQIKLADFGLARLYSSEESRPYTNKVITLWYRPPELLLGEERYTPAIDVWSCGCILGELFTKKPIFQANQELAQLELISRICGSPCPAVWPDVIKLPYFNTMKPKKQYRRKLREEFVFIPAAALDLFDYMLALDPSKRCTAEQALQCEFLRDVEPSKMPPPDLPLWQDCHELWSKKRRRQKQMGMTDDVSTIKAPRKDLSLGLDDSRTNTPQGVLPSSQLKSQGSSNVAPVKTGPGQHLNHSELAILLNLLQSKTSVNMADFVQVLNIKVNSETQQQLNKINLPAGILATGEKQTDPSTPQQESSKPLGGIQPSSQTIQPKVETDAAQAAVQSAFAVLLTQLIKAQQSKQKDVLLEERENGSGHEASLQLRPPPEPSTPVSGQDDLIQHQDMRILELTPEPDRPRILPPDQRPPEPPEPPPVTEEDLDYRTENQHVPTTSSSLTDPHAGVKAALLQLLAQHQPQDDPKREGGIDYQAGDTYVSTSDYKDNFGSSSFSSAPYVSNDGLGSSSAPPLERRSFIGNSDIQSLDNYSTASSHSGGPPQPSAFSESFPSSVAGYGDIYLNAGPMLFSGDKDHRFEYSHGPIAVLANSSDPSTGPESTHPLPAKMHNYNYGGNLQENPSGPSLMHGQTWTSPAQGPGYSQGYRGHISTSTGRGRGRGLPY
# T2 sequence (O75909 whole entry partner): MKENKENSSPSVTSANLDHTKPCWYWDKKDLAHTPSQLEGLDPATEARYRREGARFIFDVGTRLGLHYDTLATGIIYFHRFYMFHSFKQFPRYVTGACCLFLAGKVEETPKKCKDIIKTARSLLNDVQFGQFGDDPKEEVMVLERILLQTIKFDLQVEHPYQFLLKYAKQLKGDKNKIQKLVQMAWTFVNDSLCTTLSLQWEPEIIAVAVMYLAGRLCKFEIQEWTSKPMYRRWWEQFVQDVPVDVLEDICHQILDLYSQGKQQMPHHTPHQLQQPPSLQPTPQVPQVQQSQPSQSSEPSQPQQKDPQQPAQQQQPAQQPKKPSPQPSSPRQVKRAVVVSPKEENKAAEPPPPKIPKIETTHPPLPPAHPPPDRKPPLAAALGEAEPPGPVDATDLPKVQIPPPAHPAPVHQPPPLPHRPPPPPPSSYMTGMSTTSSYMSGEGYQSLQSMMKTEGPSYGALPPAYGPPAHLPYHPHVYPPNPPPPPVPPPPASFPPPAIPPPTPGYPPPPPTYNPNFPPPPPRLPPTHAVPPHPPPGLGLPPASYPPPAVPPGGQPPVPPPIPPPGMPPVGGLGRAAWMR
# T2 sequence (Q16531 2-1140 limits assumed): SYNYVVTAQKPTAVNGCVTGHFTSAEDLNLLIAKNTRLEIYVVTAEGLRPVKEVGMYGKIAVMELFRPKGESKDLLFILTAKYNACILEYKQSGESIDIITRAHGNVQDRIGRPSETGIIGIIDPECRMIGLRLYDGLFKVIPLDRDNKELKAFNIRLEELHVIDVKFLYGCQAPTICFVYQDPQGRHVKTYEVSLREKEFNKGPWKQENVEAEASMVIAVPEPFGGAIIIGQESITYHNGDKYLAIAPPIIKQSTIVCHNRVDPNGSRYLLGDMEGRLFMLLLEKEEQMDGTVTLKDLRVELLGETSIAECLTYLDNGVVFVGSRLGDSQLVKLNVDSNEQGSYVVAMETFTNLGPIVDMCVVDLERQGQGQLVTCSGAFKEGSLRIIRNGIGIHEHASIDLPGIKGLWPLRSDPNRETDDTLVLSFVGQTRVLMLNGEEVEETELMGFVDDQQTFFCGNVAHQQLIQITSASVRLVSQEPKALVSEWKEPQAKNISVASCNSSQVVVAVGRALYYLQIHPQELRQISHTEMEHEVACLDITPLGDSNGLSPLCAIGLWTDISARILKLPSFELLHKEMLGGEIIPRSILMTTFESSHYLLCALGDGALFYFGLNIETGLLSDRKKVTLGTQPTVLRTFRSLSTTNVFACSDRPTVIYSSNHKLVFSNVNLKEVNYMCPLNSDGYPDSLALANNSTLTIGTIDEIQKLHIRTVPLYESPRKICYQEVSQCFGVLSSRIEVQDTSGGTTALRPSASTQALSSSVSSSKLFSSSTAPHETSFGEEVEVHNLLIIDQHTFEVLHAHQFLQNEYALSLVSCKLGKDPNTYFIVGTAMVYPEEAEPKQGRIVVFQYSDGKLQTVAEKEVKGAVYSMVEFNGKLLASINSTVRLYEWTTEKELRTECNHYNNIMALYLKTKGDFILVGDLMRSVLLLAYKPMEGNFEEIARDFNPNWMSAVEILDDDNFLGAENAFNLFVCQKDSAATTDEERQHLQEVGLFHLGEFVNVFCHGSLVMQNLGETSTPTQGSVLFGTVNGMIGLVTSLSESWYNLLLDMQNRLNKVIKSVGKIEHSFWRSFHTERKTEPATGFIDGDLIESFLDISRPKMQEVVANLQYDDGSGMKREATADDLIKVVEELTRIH
# Chain of CDK12–cyclin K (Q9NYV4 713-1052): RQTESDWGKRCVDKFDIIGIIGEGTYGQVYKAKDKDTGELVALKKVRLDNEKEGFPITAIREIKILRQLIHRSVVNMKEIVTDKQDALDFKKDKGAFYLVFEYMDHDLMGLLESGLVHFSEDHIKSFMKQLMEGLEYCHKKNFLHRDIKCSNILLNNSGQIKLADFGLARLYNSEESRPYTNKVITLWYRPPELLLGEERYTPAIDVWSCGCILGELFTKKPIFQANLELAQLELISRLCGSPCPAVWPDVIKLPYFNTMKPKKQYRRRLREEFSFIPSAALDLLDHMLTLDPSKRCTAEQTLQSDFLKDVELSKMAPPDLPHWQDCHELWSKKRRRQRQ
# Chain of CDK12–cyclin K (O75909 1-267 partner limits assumed): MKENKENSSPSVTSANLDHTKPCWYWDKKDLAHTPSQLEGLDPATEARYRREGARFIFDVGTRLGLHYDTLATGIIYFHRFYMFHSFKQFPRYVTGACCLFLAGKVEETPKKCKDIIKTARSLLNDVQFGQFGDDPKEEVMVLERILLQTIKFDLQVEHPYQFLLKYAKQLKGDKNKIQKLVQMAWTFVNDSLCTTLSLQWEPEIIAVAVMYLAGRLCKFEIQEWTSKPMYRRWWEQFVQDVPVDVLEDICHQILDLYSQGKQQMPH
structure (smiles),measurement,setting,value
Cc1cccc(Nc2nc(CC(=O)Nc3ncc(C)s3)cs2)n1 [HQ461],cyclin K abundance (label-free MS),"[1]; individual replicates, sheet EDF7",622.336 and 691.814
same,cyclin K abundance (label-free MS),[1]; [6],622.336 and 691.814
same,CCNK peptide count (DMSO-normalised),[1]; [7],0.34 and 0.3848
same,average CCNK peptide count,[1]; sheet EDF7,657.075
same,EC50,"[2]; Homo sapiens, HEK-293T, HEK293T viability, 72 h, compound alone, read-out: Cellular assays EC50",1.3 µM
same,Toxicity rescue,"[2]; MLN4924-mediated cytotoxicity rescue, 10 µM used where n.d.",159%
same,CDK12 peptide count,[3]; [6],703.981 and 744.171
same,CDK12 peptide count (DMSO-normalised),[3]; [7],0.7821 and 0.7686
same,IC50,"[4]; Lanthascreen, read-out: CDK12 inhibition",> 10000 nM
same,IC50,"[4]; Supplementary Table 2, read-out: Lanthascreen IC50 [nM] CDK12",> 10000 nM
same,"Lanthascreen raw signal, sheet CDK12","[4]; compound 0.038147 nM, series r13",0.01223 and 0.01089
same,"Lanthascreen raw signal, sheet CDK12","[4]; compound 0.152588 nM, series r13",0.01192 and 0.01181
same,"Lanthascreen raw signal, sheet CDK12","[4]; compound 0.610352 nM, series r13",0.01147 and 0.01206
same,"Lanthascreen raw signal, sheet CDK12","[4]; compound 1.02544 nM, series r1",0.009388 and 0.008109
same,"Lanthascreen raw signal, sheet CDK12","[4]; compound 3.15521 nM, series r1",0.008061 and 0.009006
same,"Lanthascreen raw signal, sheet CDK12","[4]; compound 9.46563 nM, series r1",0.008944 and 0.009513
same,"Lanthascreen raw signal, sheet CDK12","[4]; compound 9.76563 nM, series r13",0.01062 and 0.01153
same,"Lanthascreen raw signal, sheet CDK12","[4]; compound 31.5521 nM, series r1",0.009567 and 0.009846
same,"Lanthascreen raw signal, sheet CDK12","[4]; compound 39.0625 nM, series r13",0.01003 and 0.0116
same,"Lanthascreen raw signal, sheet CDK12","[4]; compound 99.3891 nM, series r1",0.009103 and 0.01044
same,"Lanthascreen raw signal, sheet CDK12","[4]; compound 156.25 nM, series r13",0.0115 and 0.0116
same,"Lanthascreen raw signal, sheet CDK12","[4]; compound 315.521 nM, series r1",0.007883 and 0.008557
same,"Lanthascreen raw signal, sheet CDK12","[4]; compound 625 nM, series r13",0.01055 and 0.01154
same,"Lanthascreen raw signal, sheet CDK12","[4]; compound 2500 nM, series r13",0.01098 and 0.01126
same,"Lanthascreen raw signal, sheet CDK12","[4]; compound 3155.21 nM, series r1",0.006491 and 0.00695
same,"Lanthascreen raw signal, sheet CDK12","[4]; compound 10000 nM, series r13",0.01006 and 0.01041
same,"Lanthascreen raw signal, sheet CDK12","[4]; compound 10002 nM, series r1",0.00959 and 0.009612
same,CDK13 peptide count,[5]; [6],467.381 and 369.821
same,CDK13 peptide count (DMSO-normalised),[5]; [7],0.6953 and 0.5683
